{
  "source": "patent US20100184811A1",
  "about": "“ISONIAZID MEDIATED HEALING OF WOUNDS AND ULCERS” (priority 2006, published 2010)",
  "key": {"ischemic wounds": {"tested_on": "ischemic wounds", "test": "Ischemic cutaneous wound healing in a validated rat model (dorsal ischemic skin flap)", "type": "in vivo, Male Sprague-Dawley rats", "details": "10 mg/kg i.p. b.i.d., 14 days; 8 mm full-thickness wound in ischemic flap; p=0.014", "protocol": "The compounds were masked to the investigators. The first dose was given directly after wounding.\nResults are expressed as mean±SD or mean±SEM. Wound healing differences among the two groups were calculated as the area under the wound healing curves (FIG. 2A+B) with correction according to Bonferroni (p=0.035). Licox® results were analyzed by the Wilcoxon test."}, "[1]": {"tested_on": "non-ischemic cutaneous lesions / non-TB chronic wounds", "details": "cited from earlier work"}, "[2]": {"test": "Tolerability and body weight in the rat wound model", "experimental": "Rats were anesthetized by intraperitoneal (i.p.) injection of 100 mg/kg ketamine (Parke-Davis, Berlin, Germany) and 15 mg/kg xylazin (Bayer, Leverkusen, Germany). A standardized pedunculated dorsal ischemic skin flap (3 cm×7 cm) was lifted, replaced, and fixed with metal clips. Two full-thickness wounds were made using punch biopsies (8 mm diameter), one in the ischemic flap region and one non-ischemic outside the flap in the neck.\nTo the control group, comprising 10 rats, 10 ml/kg of sterile isotonic saline was administered. The compounds were masked to the investigators. The first dose was given directly after wounding. Wounds were traced (outer margins) on OpSite* Flexigrid* (Smith & Nephew) 30 minutes after wounding day 0 and after dressing (Hydrosorb, Hartmann) removal and wound cleansing on subsequent days (Table I). On post-wounding day 2, intracutaneous oxygen tensions were measured 1 hour after administration of compounds with Licox® (Integra LifeSciences Corporation) Clark type probe under full anesthesia. The Licox® probe was positioned at the wound edges using a Venflon catheter (FIG. 1)."}},
  "note": "“Also recorded” adds a separate entry of the source.",
  "data": [
    {"smiles": "NNC(=O)c1ccncc1", "note": "[Isoniazid, pyridine-4-carbohydrazide]", "values": [
      {"measurement": "Healing of ischemic wounds compared with the control (area under the wound healing curves)", "setting": "ischemic wounds", "result": "promoted healing of the ischemic wounds; also recorded: stimulated ischemic wound healing"},
      {"measurement": "Effect on healing of a variety of non-TB chronic wounds", "setting": "[1]; case report, Martyn and Campell (1963)", "result": "stimulating effects"},
      {"measurement": "Effect on ischemic tissue", "setting": "[1]; conclusion of Martyn and Campell (1963)", "result": "little effect on ischemic tissue"},
      {"measurement": "Healing of coincidental non-ischemic cutaneous lesions", "setting": "[1]; tuberculosis and non-tuberculosis patients treated with isoniazid (Potter and Taylor, 1969)", "result": "healed"},
      {"measurement": "Body weight difference among groups", "setting": "[2]; before operation or after 14 days of treatment", "result": "did not differ significantly"},
      {"measurement": "Body weights before operation (Mean ± SD)", "setting": "[2]; before operation, n=10", "result": "360 ± 8", "unit": "gram"},
      {"measurement": "Rats that died", "setting": "[2]; group of 10 rats, death 5 days after operation", "result": "one"},
      {"measurement": "Body weights on post-wounding day 14 (Mean ± SD)", "setting": "[2]; post operative day 14, 10 mg/kg i.p. b.i.d., n=9", "result": "341 ± 12", "unit": "gram"}
    ]}
  ]
}
